The values below come from patent US20250042879A1, “HETEROCYCLIC SUBSTITUTED 1,3,4-THIADIAZOLE AND PYRIDAZINE COMPOUNDS AND METHODS OF USING THE SAME” (Rgenta Therapeutics, Inc., priority 2021, published 2025).

The structures appear in SMILES notation. Counter-ions that a name gives are not always drawn.

This test relates to HTT. Briefly: Mini-gene reporter assay-HTT (firefly luciferase, exon inclusion). It counts as cell-based. Particulars: Homo sapiens; HTT mini-gene firefly luciferase reporter transiently transfected into HEK293 cells. The text has this:
Mini-gene reporter constructs for each target site were constructed by first PCR amplifying the region-of-interest including the sequence of the alternatively skipped, sequences of the immediate upstream and downstream introns, and sequences of the immediate upstream and downstream exons. Then the 3′end of the amplified sequence was ligated to a firefly luciferase reporter gene and cloned into the pcDNA3.1 vector backbone. The final reporter construct was transiently transfected into HEK293 cells using Lipofectamine 3000 transfection reagents. Compounds that can induce the inclusion of the skipped exon in the reporter construct would increase the reporter firefly luciferase activity.
Test compounds were diluted in duplicates and dispensed into an assay plate. Transient mini-gene reporter cell line stock was resuspended and dispensed into the assay plate. Assay plates were then centrifuged and incubated. A luciferase reagent (e.g. ONE-Glo firefly luciferase reagent from Promega®) was added to the assay plate and the luminescence (RLU) signals recorded. EC50 values were determined by curve fitting in Levenberg-Marquardt algorithm.
A general note: In a reporter assay the amount or activity of a reporter protein is the signal.
Compound `Cc1cn2cc(-c3ccc(-c4ccc(C5CNC5)nn4)c(O)c3)cc(F)c2n1` [Compound 1, 2-(6-(azetidin-3-yl)pyridazin-3-yl)-5-(8-fluoro-2-methylimidazo[1,2-a]pyridin-6-yl)phenol] returned an EC50 of 50 to 500 nM.

With `Cc1cn2cc(-c3ccc(-c4ccc(C5CNC5)nn4)c(O)c3)ccc2n1` [Compound 2, 2-(6-(azetidin-3-yl)pyridazin-3-yl)-5-(2-methylimidazo[1,2-a]pyridin-6-yl)phenol], the half-maximal effective concentration (EC50) was 50 to 500 nM.

Take `Cc1cn2nc(-c3ccc(-c4ccc(C5CNC5)nn4)c(O)c3)cc(C)c2n1` [Compound 3, 2-[6-(azetidin-3-yl)pyridazin-3-yl]-5-{2,8-dimethylimidazo[1,2-b]pyridazin-6-yl}phenol]: the EC50 was in the range of 50 to 500 nM.

`Cc1cn2cc(-c3ccc(-c4ccc(C5CNC5)nn4)c(O)c3)cc(C)c2n1` [Compound 4, 2-(6-(azetidin-3-yl)pyridazin-3-yl)-5-(2,8-dimethylimidazo[1,2-a]pyridin-6-yl)phenol hydrochloride] came in with an EC50 not below 1000 nM.

Regarding `Cc1cn2cc(-c3ccc(-c4ccc(C5CNC5)nn4)c(O)c3)cc(C(F)(F)F)c2n1` [Compound 5, 2-[6-(azetidin-3-yl)pyridazin-3-yl]-5-[2-methyl-8-(trifluoromethyl)imidazo[1,2-a]pyridin-6-yl]phenol], the EC50 lay in the range of 50 to 500 nM.

In the case of `Cc1cc(-c2ccc(-c3ccc(C4CNC4)nn3)c(O)c2)cc2cn(C)nc12` [Compound 6, 2-(6-(azetidin-3-yl)pyridazin-3-yl)-5-(2,7-dimethyl-2H-indazol-5-yl)phenol hydrochloride], the EC50 lay in the range of 500 to 1000 nM.

On to `Cc1cn2cc(-c3cc(O)c(-c4ccc(C5CNC5)nn4)cc3F)cc(F)c2n1` [Compound 8, 2-[6-(azetidin-3-yl)pyridazin-3-yl]-4-fluoro-5-{8-fluoro-2-methylimidazo[1,2-a]pyridin-6-yl}phenol], for which the EC50 was not below 1000 nM.

In turn, `Cc1cn2cc(-c3ccc(-c4ccc(C5CNC5)nn4)c(O)c3)nc(C)c2n1` [Compound 9, 2-[6-(azetidin-3-yl)pyridazin-3-yl]-5-{2,8-dimethylimidazo[1,2-a]pyrazin-6-yl}phenol] showed an EC50 of 50 to 500 nM.

The compound `Cc1cn2cc(-c3ccc(-c4ccc(C5CNC5)nn4)c(O)c3F)cc(F)c2n1` [Compound 10, 6-[6-(azetidin-3-yl)pyridazin-3-yl]-2-fluoro-3-{8-fluoro-2-methylimidazo[1,2-a]pyridin-6-yl}phenol] gave an EC50 of less than 50 nM.

`Cc1cn2cc(-c3cc(O)c(-c4ccc(C5CNC5)nn4)c(F)c3)cc(F)c2n1` [Compound 11, 2-[6-(azetidin-3-yl)pyridazin-3-yl]-3-fluoro-5-{8-fluoro-2-methylimidazo[1,2-a]pyridin-6-yl}phenol]: the concentration giving a half-maximal response (EC50) was 500 to 1000 nM.

On to `Cc1cc2cc(-c3ccc(-c4ccc(C5CNC5)nn4)c(O)c3)ccn2n1` [Compound 13, 2-[6-(azetidin-3-yl)pyridazin-3-yl]-5-{2-methylpyrazolo[1,5-a]pyridin-5-yl}phenol], for which the EC50 was not below 1000 nM.

As to `Cc1cn2cc(-c3ccc(-c4ccc(C5CN(C)C5)nn4)c(O)c3)ccc2n1` [Compound 14, 2-[6-(1-methylazetidin-3-yl)pyridazin-3-yl]-5-{2-methylimidazo[1,2-a]pyridin-6-yl}phenol], the EC50 lay in the range of 500 to 1000 nM.

As for `Cn1cc2cc(-c3ccc(-c4ccc(C5CNC5)nn4)c(O)c3)ccc2n1` [Compound 16, 2-[6-(azetidin-3-yl)pyridazin-3-yl]-5-(2-methyl-2H-indazol-5-yl)phenol], the EC50 fell in the range of 50 to 500 nM.

Compound `CCN1CC(c2ccc(-c3ccc(-c4cc(F)c5nc(C)cn5c4)cc3O)nn2)C1` [Compound 17, 2-[6-(1-ethylazetidin-3-yl)pyridazin-3-yl]-5-{8-fluoro-2-methylimidazo[1,2-a]pyridin-6-yl}phenol] gave a 50% effective concentration (EC50) of 50 to 500 nM.

As to `Cc1cn2cc(-c3ccc(-c4ccc(C5CN(C6CCOCC6)C5)nn4)c(O)c3)cc(F)c2n1` [Compound 18, 5-{8-fluoro-2-methylimidazo[1,2-a]pyridin-6-yl}-2-{6-[1-(oxan-4-yl)azetidin-3-yl]pyridazin-3-yl}phenol], the EC50 was in the range of 500 to 1000 nM.

As to `CN1CC(c2ccc(-c3ccc(-c4ccc5nn(C)cc5c4)cc3O)nn2)C1` [Compound 19, 5-(2-methyl-2H-indazol-5-yl)-2-[6-(1-methylazetidin-3-yl)pyridazin-3-yl]phenol], the EC50 is not below 1000 nM.

`Cc1cn2cc(-c3ccc(-c4ccc(C5CN(C)C5)nn4)c(O)c3)nc(C)c2n1` [Compound 20, 5-{2,8-dimethylimidazo[1,2-a]pyrazin-6-yl}-2-[6-(1-methylazetidin-3-yl)pyridazin-3-yl]phenol] yielded an EC50 of 500 to 1000 nM.

Take `Cc1cc2cc(-c3ccc(-c4ccc(C5CN(C)C5)nn4)c(O)c3)ccn2n1` [Compound 21, 2-[6-(1-methylazetidin-3-yl)pyridazin-3-yl]-5-{2-methylpyrazolo[1,5-a]pyridin-5-yl}phenol]: the concentration for a half-maximal effect (EC50) is not below 1000 nM.

For `CCN1CC(c2ccc(-c3ccc(-c4ccc5nn(C)cc5c4)cc3O)nn2)C1` [Compound 24, 2-[6-(1-ethylazetidin-3-yl)pyridazin-3-yl]-5-(2-methyl-2H-indazol-5-yl)phenol], the EC50 was 50 to 500 nM.

In turn, `CCN1CC(c2ccc(-c3ccc(-c4ccn5nc(C)cc5c4)cc3O)nn2)C1` [Compound 25, 2-[6-(1-ethylazetidin-3-yl)pyridazin-3-yl]-5-{2-methylpyrazolo[1,5-a]pyridin-5-yl}phenol] came in with a half-maximal effective concentration (EC50) not below 1000 nM.

The compound `Cc1cc(-c2ccc(-c3ccc(C4CN(C)C4)nn3)c(O)c2)cc2cn(C)nc12` [Compound 27, 5-(2,7-dimethyl-2H-indazol-5-yl)-2-[6-(1-methylazetidin-3-yl)pyridazin-3-yl]phenol] yielded an EC50 of 50 to 500 nM.

In turn, `Cc1cc2cc(-c3ccc(-c4ccc(C5CNC5)nn4)c(O)c3)cc(C)n2n1` [Compound 29, 2-[6-(azetidin-3-yl)pyridazin-3-yl]-5-{2,7-dimethylpyrazolo[1,5-a]pyridin-5-yl}phenol] returned a 50% effective concentration (EC50) of 500 to 1000 nM.

`Cc1cn2nc(-c3ccc(-c4ccc(C5CN(C)C5)nn4)c(O)c3)cc(C)c2n1` [Compound 30, 5-{2,8-dimethylimidazo[1,2-b]pyridazin-6-yl}-2-[6-(1-methylazetidin-3-yl)pyridazin-3-yl]phenol] returned an EC50 not below 1000 nM.

`Cc1cn2nc(-c3ccc(-c4ccc(C5CNC5)nn4)c(O)c3)ccc2n1` [Compound 31, 2-[6-(azetidin-3-yl)pyridazin-3-yl]-5-{2-methylimidazo[1,2-b]pyridazin-6-yl}phenol] yielded an EC50 of 500 to 1000 nM.

`CCN1CC(c2ccc(-c3ccc(-c4cn5cc(C)nc5c(C)n4)cc3O)nn2)C1` [Compound 32, 5-{2,8-dimethylimidazo[1,2-a]pyrazin-6-yl}-2-[6-(1-ethylazetidin-3-yl)pyridazin-3-yl]phenol]: the concentration for a half-maximal effect (EC50) is not below 1000 nM.

`Cc1cn2cc(-c3ccc(-c4ccc(C5CNC5)nn4)c(O)c3)ncc2n1` [Compound 33, 2-[6-(azetidin-3-yl)pyridazin-3-yl]-5-{2-methylimidazo[1,2-a]pyrazin-6-yl}phenol]: the EC50 is 500 to 1000 nM.

The compound `CCN1CC(c2ccc(-c3ccc(-c4cc(C)c5nn(C)cc5c4)cc3O)nn2)C1` [Compound 34, 5-(2,7-dimethyl-2H-indazol-5-yl)-2-[6-(1-ethylazetidin-3-yl)pyridazin-3-yl]phenol] returned an EC50 of 50 to 500 nM.

On to `Cc1cn2cc(-c3ccc(-c4ccc(C5CN(C)C5)nn4)c(O)c3)cc(C)c2n1` [Compound 35, 5-{2,8-dimethylimidazo[1,2-a]pyridin-6-yl}-2-[6-(1-methylazetidin-3-yl)pyridazin-3-yl]phenol], for which the concentration giving a half-maximal response (EC50) lay within 500 to 1000 nM.

Consider `Cc1cn2nc(-c3ccc(-c4ccc(C5CN(C)C5)nn4)c(O)c3)ccc2n1` [Compound 37, 2-[6-(1-methylazetidin-3-yl)pyridazin-3-yl]-5-{2-methylimidazo[1,2-b]pyridazin-6-yl}phenol], for which the EC50 was in the range of 50 to 500 nM.

In turn, `Cc1cn2cc(-c3ccc(-c4ccc(C5CN(C)C5)nn4)c(O)c3)ncc2n1` [Compound 39, 2-[6-(1-methylazetidin-3-yl)pyridazin-3-yl]-5-{2-methylimidazo[1,2-a]pyrazin-6-yl}phenol] returned an EC50 of 50 to 500 nM.

`Cc1cc2cc(-c3ccc(-c4ccc(C5CN(C)C5)nn4)c(O)c3)cc(C)n2n1` [Compound 40, 5-{2,7-dimethylpyrazolo[1,5-a]pyridin-5-yl}-2-[6-(1-methylazetidin-3-yl)pyridazin-3-yl]phenol]: the concentration giving a half-maximal response (EC50) was 500 to 1000 nM.

Compound `CCN1CC(c2ccc(-c3ccc(-c4cc(C)n5nc(C)cc5c4)cc3O)nn2)C1` [Compound 41, 5-{2,7-dimethylpyrazolo[1,5-a]pyridin-5-yl}-2-[6-(1-ethylazetidin-3-yl)pyridazin-3-yl]phenol] had a concentration giving a half-maximal response (EC50) not below 1000 nM.

For `CCN1CC(c2ccc(-c3ccc(-c4cc(C)c5nc(C)cn5n4)cc3O)nn2)C1` [Compound 42, 5-{2,8-dimethylimidazo[1,2-b]pyridazin-6-yl}-2-[6-(1-ethylazetidin-3-yl)pyridazin-3-yl]phenol], the concentration for a half-maximal effect (EC50) is not below 1000 nM.

In the case of `CCN1CC(c2ccc(-c3ccc(-c4cn5cc(C)nc5cn4)cc3O)nn2)C1` [Compound 43, 2-[6-(1-ethylazetidin-3-yl)pyridazin-3-yl]-5-{2-methylimidazo[1,2-a]pyrazin-6-yl}phenol], the concentration for a half-maximal effect (EC50) was 500 to 1000 nM.

Turning to `Cn1cc2cc(-c3ccc(-c4ccc(C5CNC5)nn4)c(O)c3)ncc2n1` [Compound 44, 2-(6-(azetidin-3-yl)pyridazin-3-yl)-5-(2-methyl-2H-pyrazolo[3,4-c]pyridin-5-yl)phenol hydrochloride], the EC50 was 500 to 1000 nM.

Usually EC50 stands for the concentration needed to bring the measured effect to its halfway point. Read a low EC50 as a more potent agent.
